This is an account of results in the PolyMetriX glass transition set.

Test in data set [1]: not given
This is another data set of the same source.

± gives the standard deviation of the reports.

`*Oc1c(F)c(F)c(Oc2c(F)c(F)c3c(c2F)C(=O)N(c2ccc(-c4ccc(N5C(=O)c6c(F)c(*)c(F)c(F)c6C5=O)cc4C(F)(F)F)c(C(F)(F)F)c2)C3=O)c(F)c1F` (repeat unit) gave a glass transition temperature of 312.00 °C. `*c1ccc(-c2ccc(N3C(=O)c4cc5c(cc4C3=O)C(C(F)(F)F)(C(F)(F)F)c3cc4c(cc3O5)C(=O)N(*)C4=O)cc2C(F)(F)F)c(C(F)(F)F)c1` (repeat unit) displayed a glass transition temperature of 420.00 °C. The same measure, in the same setting: the same measure for `*c1ccc(-c2ccc(N3C(=O)c4cc5c(cc4C3=O)C(C(F)(F)F)(C(F)(F)F)c3cc4c(cc3O5)C(=O)N(*)C4=O)cc2OC(F)(F)F)c(OC(F)(F)F)c1` (repeat unit): 375.00 °C. Still for that read-out and setting: the same measure for `*c1ccc(-c2ccc(N3C(=O)c4cc5c(cc4C3=O)C(c3ccccc3)(C(F)(F)F)c3cc4c(cc3O5)C(=O)N(*)C4=O)cc2OC(F)(F)F)c(OC(F)(F)F)c1` (repeat unit): 400.00 °C; for `*Oc1ccc(Oc2ccc3c(c2)C(=O)N(c2ccc(Oc4ccc5ccccc5c4-c4c(Oc5ccc(N6C(=O)c7ccc(*)cc7C6=O)cc5C(F)(F)F)ccc5ccccc45)c(C(F)(F)F)c2)C3=O)cc1` (repeat unit): 256.00 °C.

Molecule `*Oc1ccc2c(c1)C(=O)N(c1cc(N3C(=O)c4ccc(*)cc4C3=O)cc(C(F)(F)F)c1)C2=O` (repeat unit) displayed a glass transition temperature of 274.00 °C. The same measure, in the same setting: the same measure for `*c1ccc2c(c1)C(=O)N(c1ccc(-c3ccc(N4C(=O)c5ccc(C(*)(C(F)(F)F)C(F)(F)F)cc5C4=O)cc3-c3ccc(C)cc3)c(-c3ccc(C)cc3)c1)C2=O` (repeat unit): 286.00 °C; for `*C(=O)Nc1ccc2ccccc2c1-c1c(NC(=O)c2ccc3c(c2)C(=O)N(c2ccc(Cc4ccc(N5C(=O)c6ccc(*)cc6C5=O)cc4)cc2)C3=O)ccc2ccccc12` (repeat unit): 285.40 °C. `*C(=O)Oc1ccc2ccccc2c1-c1c(OC(=O)c2ccc3c(c2)C(=O)N(c2ccc(Oc4ccc(N5C(=O)c6ccc(*)cc6C5=O)cc4)cc2)C3=O)ccc2ccccc12` (repeat unit) displayed a glass transition temperature of 257.00 °C. `*Oc1ccc2ccccc2c1-c1c(Oc2ccc3c(c2)C(=O)N(c2ccc(Oc4ccc(N5C(=O)c6ccc(*)cc6C5=O)cc4)cc2)C3=O)ccc2ccccc12` (repeat unit): the glass transition temperature was 274.00 °C. On the same count and under the same terms, for `*C(=O)c1ccc2c(c1)C(=O)N(c1cccc(Oc3ccc(P(=O)(c4ccccc4)c4ccc(Oc5ccc(N6C(=O)c7ccc(*)cc7C6=O)cc5)cc4)cc3)c1)C2=O` (repeat unit) the value was 232.00 °C; for `*C(=O)c1ccc2c(c1)C(=O)N(c1cc(N3C(=O)c4ccc(*)cc4C3=O)ccc1OCC(F)(F)C(F)(F)C(F)(F)C(F)(F)C(F)(F)C(F)(F)C(F)(F)F)C2=O` (repeat unit), 223.00 °C; for `*C(=O)c1ccc2c(c1)C(=O)N(c1cc(N3C(=O)c4ccc(*)cc4C3=O)ccc1OCC(F)(F)C(F)(F)C(F)(F)C(F)(F)C(F)(F)C(F)(F)F)C2=O` (repeat unit), 229.00 °C.

Consider `*C(=O)c1ccc2c(c1)C(=O)N(c1cc(N3C(=O)c4ccc(*)cc4C3=O)ccc1OCC(F)(F)C(F)(F)C(F)(F)F)C2=O` (repeat unit), for which the glass transition temperature worked out at 262.00 °C. Still for that read-out and setting: the same measure for `*Oc1ccc2c(c1)C(=O)N(c1ccc(P(=O)(c3ccccc3)c3ccc(N4C(=O)c5ccc(*)cc5C4=O)cc3)cc1)C2=O` (repeat unit): 311.00 °C; for `*C(=O)c1ccc2c(c1)C(=O)N(c1ccc(C(=O)c3ccccc3N3C(=O)c4ccc(*)cc4C3=O)cc1)C2=O` (repeat unit): 289.00 °C.

On to `*c1c(C)c(C)c(N2C(=O)c3cc4c(cc3C2=O)C(c2ccccc2)(C(F)(F)F)c2cc3c(cc2O4)C(=O)N(*)C3=O)c(C)c1C` (repeat unit), for which the glass transition temperature is 394.00 °C. Same read-out and setting: for `*C(=O)c1ccc2c(c1)C(=O)N(c1c(C)cc(CC)c(N3C(=O)c4ccc(*)cc4C3=O)c1CC)C2=O` (repeat unit) the value was 385.00 °C; for `*C1=C(Cl)C(=O)N(c2ccc(Cc3ccc(N4C(=O)C(Cl)=C(Oc5c(Cl)cc(C(C)(C)c6cc(Cl)c(*)c(Cl)c6)cc5Cl)C4=O)cc3)cc2)C1=O` (repeat unit), 200.00 °C. Still for that read-out and setting: for `*c1ccc(Cc2ccc(-n3c(=O)c4ccc5c(=O)n(*)c(=O)c5c4c3=O)c(C)c2)cc1C` (repeat unit) the value was 354.00 °C; for `*Sc1cccc2c1C(=O)N(c1ccc(N3C(=O)c4cccc(*)c4C3=O)cc1)C2=O` (repeat unit), 330.00 °C; for `*Oc1ccc2c(c1)C(=O)N(c1ccc(Oc3c(C)cc(Oc4ccc(N5C(=O)c6ccc(*)cc6C5=O)cc4)c(C)c3C)cc1)C2=O` (repeat unit), 261.00 °C. The same measure, in the same setting: for `*Oc1cccc(Oc2ccc(Oc3cccc4c3C(=O)N(c3ccc(Oc5ccc(N6C(=O)c7cccc(*)c7C6=O)cc5)cc3)C4=O)cc2)c1` (repeat unit) the value was 239.00 °C; for `*Oc1ccc2c(c1)C(=O)N(c1ccc(Oc3ccc(Oc4ccc(N5C(=O)c6ccc(*)cc6C5=O)cc4)cc3C(C)(C)C)cc1)C2=O` (repeat unit), 240.00 °C. `*Oc1cccc(Sc2ccc(Oc3ccc4c(c3)C(=O)N(c3ccc(Oc5cccc(Oc6ccc(N7C(=O)c8ccc(*)cc8C7=O)cc6)c5)cc3)C4=O)cc2)c1` (repeat unit) came in with a glass transition temperature of 219.00 °C. Same read-out and setting: for `*Oc1cccc(S(=O)(=O)c2ccc(Oc3cccc4c3C(=O)N(c3ccc(Oc5cccc(Oc6ccc(N7C(=O)c8cccc(*)c8C7=O)cc6)c5)cc3)C4=O)cc2)c1` (repeat unit) the value was 216.00 °C; for `*C1=C(Cl)C(=O)N(c2cccc(N3C(=O)C(Cl)=C(Oc4ccc(C(C)(C)c5ccc(*)cc5)cc4)C3=O)c2)C1=O` (repeat unit), 163.00 °C. Still for that read-out and setting: for `*Oc1cccc2c1C(=O)N(c1ccc(Oc3ccc(Oc4cccc(N5C(=O)c6cccc(*)c6C5=O)c4)cc3)cc1)C2=O` (repeat unit) the value was 263.00 °C; for `*Oc1ccc(C(c2ccc(Oc3cccc4c3C(=O)N(CCCCCCCCN3C(=O)c5cccc(*)c5C3=O)C4=O)cc2)(C(F)(F)F)C(F)(F)F)cc1` (repeat unit), 135.00 °C. On to `*c1ccc(*)[nH]1` (repeat unit) [Poly(pyrrole)], for which, in data set [1], the glass transition temperature was 86.42 ± 23 °C. Take `*CC(*)(C)C(=O)OC(C)CC` (repeat unit) [Poly(sec-butyl methacrylate)]: the glass transition temperature in data set [1] was determined as 57 ± 2.6 °C. The same measure, in the same setting: the same measure for `*CCCCOC(=O)CCCCC(=O)O*` (repeat unit) [Poly(tetramethylene adipate) ]: -68 ± 2.1 °C. `*CCCOC(=O)c1ccc(C(=O)O*)cc1` (repeat unit) [Poly(trimethylene terephthalate)] had a glass transition temperature in data set [1] of 52.92 ± 1.3 °C. As for `*CC(*)F` (repeat unit) [Poly(vinyl fluoride)], in data set [1], the glass transition temperature came out at 33.92 ± 10 °C. In turn, `*CC(*)OC(C)C` (repeat unit) [Poly(vinyl isopropyl ether) ] had a glass transition temperature in data set [1] of -4 ± 2.3 °C. On the same count and under the same terms, for `*CC(*)SC` (repeat unit) [Poly(vinyl methyl sulfide) ] the value was -1 ± 1.2 °C. On the same count and under the same terms, the same measure for `*CC(*)OCCCCCCCCCC` (repeat unit) [Poly(vinyl n-decyl ether) ]: -76 ± 8.5 °C; for `*CC(*)OCCCCC` (repeat unit) [Poly(vinyl n-pentyl ether)]: -66 ± 0.6 °C; for `*CC(*)(Cl)Cl` (repeat unit) [Poly(vinylidene chloride)]: -9.83 ± 9.4 °C. Still for that read-out and setting: the same measure for `*Oc1ccc(C(c2ccc(OC(*)=O)cc2)C(C)C)cc1` (repeat unit) [Poly[1,1-(2-methyl propane) bis(4-phenyl)carbonate]]: 149 ± 0.6 °C; for `*Oc1ccc(C(C)(CCC)c2ccc(OC(*)=O)cc2)cc1` (repeat unit) [Poly[2,2-pentane bis(4-phenyl)carbonate]]: 137 ± 0.6 °C; for `*Oc1ccc(C(CCC)(CCC)c2ccc(OC(*)=O)cc2)cc1` (repeat unit) [Poly[4,4-heptane bis(4-phenyl)carbonate]]: 148 ± 0.6 °C. As to `*CC(*)C(F)(F)C(F)(F)F` (repeat unit) [Poly[(pentafluoroethyl)ethylene] ], in data set [1], the glass transition temperature is 41 ± 0.6 °C. Still for that read-out and setting: the same measure for `*CCCCCCCCO*` (repeat unit) [Polyoxyoctamethylene ]: -70 ± 34 °C; for `*CC(*)c1ccccc1` (repeat unit) [atactic polystyrene]: 95.96 ± 28 °C; for `*CC(*)(C)C(=O)OCCCCCC` (repeat unit) [poly(hexyl methacrylate)]: -6.6 ± 7.2 °C. Still for that read-out and setting: the same measure for `*CC(*)(C)C(=O)OC` (repeat unit) [poly(methyl methacrylate)]: 108.92 ± 15 °C; for `*CCCCCCCCCCCCCCC(=O)O*` (repeat unit) [poly(pentadecalactone)]: -24.62 ± 3.6 °C.
